From ChEMBL document CHEMBL3862012, “Methylene versus carbonyl bridge in the structure of new tubulin polymerization inhibitors with tricyclic A-rings” (Bioorg Med Chem, 2016)
pIC50: −log10 of the molar value.

Assay: Inhibition of sheep brain tubulin polymerization by DAPI staining-based fluorimetric method
Design: species or system Ovis aries
Details: not given

SMILES | pIC50
COc1ccc(CN2c3ccccc3Sc3ccccc32)cc1O | 5.04
COc1ccc(CN2c3ccccc3CCc3ccccc32)cc1F | 5.19

Assay: Cytotoxicity against human HCC2998 cells assessed as growth inhibition at 10 uM after 48 hrs by SRB assay relative to control
Format: functional
Details: HCC 2998, 48 h, read-out: GI

SMILES | inhibition of growth at 10 µM [%]
COc1ccc(CN2c3ccccc3CCc3ccccc32)cc1F | 69

Assay: Cytotoxicity against human SK-MEL-28 cells assessed as growth inhibition at 10 uM after 48 hrs by SRB assay relative to control
Format: functional
Details: SK-MEL-28, 48 h, read-out: GI

SMILES | inhibition of growth at 10 µM [%]
COc1ccc(CN2c3ccccc3CCc3ccccc32)cc1F | 49

Assay: Cytotoxicity against human SK-MEL-5 cells assessed as growth inhibition at 10 uM after 48 hrs by SRB assay relative to control
Format: functional
Details: SK-MEL-5, 48 h, read-out: GI

SMILES | inhibition of growth at 10 µM [%]
COc1ccc(CN2c3ccccc3CCc3ccccc32)cc1F | 80

Assay: Cytotoxicity against human SN12C cells assessed as growth inhibition at 10 uM after 48 hrs by SRB assay relative to control
Format: functional
Details: read-out: GI

SMILES | inhibition of growth at 10 µM [%]
COc1ccc(CN2c3ccccc3CCc3ccccc32)cc1F | 61

Assay: Cytotoxicity against human CCRF-CEM cells assessed as growth inhibition after 48 hrs by SRB assay
Format: functional
Details: not given

SMILES | GI50 [nM]
COc1ccc(CN2c3ccccc3Sc3ccccc32)cc1O | 411
COc1ccc(CN2c3ccccc3CCc3ccccc32)cc1F | 515

Assay: Cytotoxicity against human HL-60(TB) cells assessed as growth inhibition after 48 hrs by SRB assay
Format: functional
Details: HL-60, 48 h

SMILES | GI50 [nM]
COc1ccc(CN2c3ccccc3Sc3ccccc32)cc1O | 257
COc1ccc(CN2c3ccccc3CCc3ccccc32)cc1F | 241

Assay: Cytotoxicity against human K562 cells assessed as growth inhibition after 48 hrs by SRB assay
Format: functional
Details: K562, 48 h

SMILES | GI50 [nM]
COc1ccc(CN2c3ccccc3Sc3ccccc32)cc1O | 365
COc1ccc(CN2c3ccccc3CCc3ccccc32)cc1F | 402

Assay: Cytotoxicity against human MOLT4 cells assessed as growth inhibition after 48 hrs by SRB assay
Format: functional
Details: MOLT-4, 48 h

SMILES | GI50 [nM]
COc1ccc(CN2c3ccccc3Sc3ccccc32)cc1O | 642
COc1ccc(CN2c3ccccc3CCc3ccccc32)cc1F | 554

Assay: Cytotoxicity against human RPMI8226 cells assessed as growth inhibition after 48 hrs by SRB assay
Format: functional
Details: RPMI-8226, 48 h

SMILES | GI50 [nM]
COc1ccc(CN2c3ccccc3Sc3ccccc32)cc1O | 420
COc1ccc(CN2c3ccccc3CCc3ccccc32)cc1F | 644

Assay: Cytotoxicity against human SR cells assessed as growth inhibition after 48 hrs by SRB assay
Format: functional
Details: not given

SMILES | GI50 [nM]
COc1ccc(CN2c3ccccc3Sc3ccccc32)cc1O | 407
COc1ccc(CN2c3ccccc3CCc3ccccc32)cc1F | 463

Assay: Cytotoxicity against human A549 cells assessed as growth inhibition after 48 hrs by SRB assay
Format: functional
Details: A549, 48 h

SMILES | GI50 [nM]
COc1ccc(CN2c3ccccc3Sc3ccccc32)cc1O | 471
COc1ccc(CN2c3ccccc3CCc3ccccc32)cc1F | 732

Assay: Cytotoxicity against human EKVX cells assessed as growth inhibition after 48 hrs by SRB assay
Format: functional
Details: not given

SMILES | GI50 [nM]
COc1ccc(CN2c3ccccc3Sc3ccccc32)cc1O | 378
COc1ccc(CN2c3ccccc3CCc3ccccc32)cc1F | 1550

Assay: Cytotoxicity against human HOP62 cells assessed as growth inhibition after 48 hrs by SRB assay
Format: functional
Details: HOP-62, 48 h

SMILES | GI50 [nM]
COc1ccc(CN2c3ccccc3Sc3ccccc32)cc1O | 384
COc1ccc(CN2c3ccccc3CCc3ccccc32)cc1F | 529

Assay: Cytotoxicity against human NCI-H23 cells assessed as growth inhibition after 48 hrs by SRB assay
Format: functional
Details: NCI-H23, 48 h

SMILES | GI50 [nM]
COc1ccc(CN2c3ccccc3Sc3ccccc32)cc1O | 364
COc1ccc(CN2c3ccccc3CCc3ccccc32)cc1F | 672

Assay: Cytotoxicity against human NCI-H522 cells assessed as growth inhibition after 48 hrs by SRB assay
Format: functional
Details: NCI-H522, 48 h

SMILES | GI50 [nM]
COc1ccc(CN2c3ccccc3Sc3ccccc32)cc1O | 241
COc1ccc(CN2c3ccccc3CCc3ccccc32)cc1F | 609

Assay: Cytotoxicity against human HCC2998 cells assessed as growth inhibition after 48 hrs by SRB assay
Format: functional
Details: HCC 2998, 48 h

SMILES | GI50 [nM]
COc1ccc(CN2c3ccccc3Sc3ccccc32)cc1O | 422
COc1ccc(CN2c3ccccc3CCc3ccccc32)cc1F | 8900

Assay: Cytotoxicity against human HT-29 cells assessed as growth inhibition after 48 hrs by SRB assay
Format: functional
Details: HT-29, 48 h

SMILES | GI50 [nM]
COc1ccc(CN2c3ccccc3Sc3ccccc32)cc1O | 724
COc1ccc(CN2c3ccccc3CCc3ccccc32)cc1F | 319

Assay: Cytotoxicity against human KM12 cells assessed as growth inhibition after 48 hrs by SRB assay
Format: functional
Details: KM12, 48 h

SMILES | GI50 [nM]
COc1ccc(CN2c3ccccc3CCc3ccccc32)cc1F | 387

Assay: Cytotoxicity against human SF295 cells assessed as growth inhibition after 48 hrs by SRB assay
Format: functional
Details: SF-295, 48 h

SMILES | GI50 [nM]
COc1ccc(CN2c3ccccc3Sc3ccccc32)cc1O | 225
COc1ccc(CN2c3ccccc3CCc3ccccc32)cc1F | 333

Assay: Cytotoxicity against human U251 cells assessed as growth inhibition after 48 hrs by SRB assay
Format: functional
Details: U-251, 48 h

SMILES | GI50 [nM]
COc1ccc(CN2c3ccccc3Sc3ccccc32)cc1O | 427
COc1ccc(CN2c3ccccc3CCc3ccccc32)cc1F | 496

Assay: Cytotoxicity against human UACC62 cells assessed as growth inhibition after 48 hrs by SRB assay
Format: functional
Details: UACC-62, 48 h

SMILES | GI50 [nM]
COc1ccc(CN2c3ccccc3Sc3ccccc32)cc1O | 682
COc1ccc(CN2c3ccccc3CCc3ccccc32)cc1F | 804

Assay: Cytotoxicity against human LOXIMVI cells assessed as growth inhibition after 48 hrs by SRB assay
Format: functional
Details: LOX IMVI

SMILES | GI50 [nM]
COc1ccc(CN2c3ccccc3Sc3ccccc32)cc1O | 710
COc1ccc(CN2c3ccccc3CCc3ccccc32)cc1F | 725

Assay: Cytotoxicity against human MALME-3M cells assessed as growth inhibition after 48 hrs by SRB assay
Format: functional
Details: not given

SMILES | GI50 [nM]
COc1ccc(CN2c3ccccc3Sc3ccccc32)cc1O | 12200

Assay: Cytotoxicity against human OVCAR4 cells assessed as growth inhibition after 48 hrs by SRB assay
Format: functional
Details: OVCAR-4, 48 h

SMILES | GI50 [nM]
COc1ccc(CN2c3ccccc3Sc3ccccc32)cc1O | 726
COc1ccc(CN2c3ccccc3CCc3ccccc32)cc1F | 868

Assay: Cytotoxicity against human OVCAR8 cells assessed as growth inhibition after 48 hrs by SRB assay
Format: functional
Details: OVCAR-8, 48 h

SMILES | GI50 [nM]
COc1ccc(CN2c3ccccc3Sc3ccccc32)cc1O | 508
COc1ccc(CN2c3ccccc3CCc3ccccc32)cc1F | 880

Assay: Cytotoxicity against human NCI-ADR-RES cells assessed as growth inhibition after 48 hrs by SRB assay
Format: functional
Details: not given

SMILES | GI50 [nM]
COc1ccc(CN2c3ccccc3Sc3ccccc32)cc1O | 291
COc1ccc(CN2c3ccccc3CCc3ccccc32)cc1F | 456

Assay: Cytotoxicity against human A498 cells assessed as growth inhibition after 48 hrs by SRB assay
Format: functional
Details: A498, 48 h

SMILES | GI50 [nM]
COc1ccc(CN2c3ccccc3Sc3ccccc32)cc1O | 2710
COc1ccc(CN2c3ccccc3CCc3ccccc32)cc1F | 339

Assay: Cytotoxicity against human SN12C cells assessed as growth inhibition after 48 hrs by SRB assay
Format: functional
Details: not given

SMILES | GI50 [nM]
COc1ccc(CN2c3ccccc3Sc3ccccc32)cc1O | 1290
COc1ccc(CN2c3ccccc3CCc3ccccc32)cc1F | 1950

Assay: Cytotoxicity against human UO31 cells assessed as growth inhibition after 48 hrs by SRB assay
Format: functional
Details: UO-31, 48 h

SMILES | GI50 [nM]
COc1ccc(CN2c3ccccc3Sc3ccccc32)cc1O | 752
COc1ccc(CN2c3ccccc3CCc3ccccc32)cc1F | 814

Assay: Cytotoxicity against human ACHN cells assessed as growth inhibition after 48 hrs by SRB assay
Format: functional
Details: not given

SMILES | GI50 [nM]
COc1ccc(CN2c3ccccc3Sc3ccccc32)cc1O | 1560
COc1ccc(CN2c3ccccc3CCc3ccccc32)cc1F | 604

Assay: Cytotoxicity against human PC3 cells assessed as growth inhibition after 48 hrs by SRB assay
Format: functional
Details: PC-3, 48 h

SMILES | GI50 [nM]
COc1ccc(CN2c3ccccc3Sc3ccccc32)cc1O | 503
COc1ccc(CN2c3ccccc3CCc3ccccc32)cc1F | 489

Assay: Cytotoxicity against human Hs 578T cells assessed as growth inhibition after 48 hrs by SRB assay
Format: functional
Details: not given

SMILES | GI50 [nM]
COc1ccc(CN2c3ccccc3Sc3ccccc32)cc1O | 933
COc1ccc(CN2c3ccccc3CCc3ccccc32)cc1F | 487

Assay: Cytotoxicity against human BT549 cells assessed as growth inhibition after 48 hrs by SRB assay
Format: functional
Details: BT-549, 48 h

SMILES | GI50 [nM]
COc1ccc(CN2c3ccccc3Sc3ccccc32)cc1O | 773
COc1ccc(CN2c3ccccc3CCc3ccccc32)cc1F | 746

Assay: Cytotoxicity against human MDA-MB-468 cells assessed as growth inhibition after 48 hrs by SRB assay
Format: functional
Details: MDA-MB-468, 48 h

SMILES | GI50 [nM]
COc1ccc(CN2c3ccccc3Sc3ccccc32)cc1O | 531
COc1ccc(CN2c3ccccc3CCc3ccccc32)cc1F | 399
